# Results published in paper PMC9747124 (Clinical and Translational Science, 2022).
# Like-named read-outs stand apart in the source and are kept apart here.
# Key:
# [1] = Population PK model of evobrutinib; assay type: in vivo, human; conditions: for Increase of bioavailability with food compared with when fasted: population PK model covariate effect
# [2] = test system: patients with RMS; assay type: in vivo, human
# [3] = data not shown for high-fat or moderate-fat meal; internal report; cited from earlier work
# [4] = test system: patients with RMS; conditions: cited from earlier work; for Annualized relapse rate (ARR): 75 mg b.i.d.
# [5] = test system: patients with RMS; conditions: 75 mg q.d. while fasted; over 24 weeks, maintained through week 48; cited from earlier work
# [6] = between-participant variability, final PK model
compound,measurement,setting,value
"C=CC(=O)N1CCC(CNc2ncnc(N)c2-c2ccc(Oc3ccccc3)cc2)CC1 [evobrutinib, Evobrutinib]","Patients exceeding AUC0-24,SS > 400 ng/ml h",[1]; 75 mg b.i.d. treatment arm in the phase II study,all patients
same,"ω^2 ALAG, Estimate (RSE %)",[1]; [6],0.317 (83.3)
same,"ω^2 CL/F, Estimate (RSE %)",[1]; [6],0.257 (18.1)
same,"ω^2 D1 fasted, Estimate (RSE %)",[1]; [6],0.784 (38.3)
same,"ω^2 D1 fed, Estimate (RSE %)",[1]; [6],0.784 (38.3)
same,"ω^2 Q/F, Estimate (RSE %)",[1]; [6],1.25 (18.2)
same,"ω^2 V2/F, Estimate (RSE %)",[1]; [6],0.566 (32.9)
same,"ω^2 V3/F, Estimate (RSE %)",[1]; [6],1.82 (15.2)
same,"Cov CL/F + ALAG, Estimate (RSE %)","[1]; covariance, final PK model",0.0572 (120)
same,"Cov Q/F + V3/F, Estimate (RSE %)","[1]; covariance, final PK model",1.09 (17.3)
same,Residual variability: Additive error,[1]; final PK model,0.272 ng/mL
same,Residual variability: Proportional error,[1]; final PK model,0.509
same,ALAG (lag time),"[1]; final PK model, week 48",0.197 h
same,K a (absorption rate constant),"[1]; final PK model, week 48",0.793 h⁻¹
same,V3/F (apparent volume of distribution of the peripheral compartment),"[1]; final PK model, week 48",385 L
same,CL/F (apparent clearance),"[1]; final PK model, week 48, value for healthy participants",269 L/h
same,Vd/F,"[1]; human, in vivo",50.8 L
same,AUC(0-t),"[1]; human, in vivo, 75 mg",0.835 µg·h/mL
same,Cmax,"[1]; human, in vivo, 75 mg",0.168 µg/mL
same,Increase of bioavailability with food compared with when fasted,[1],about 50%
same,Increase of bioavailability with food compared with when fasted,[1]; listed as Evobrutinib,49%
same,"exp(B1), level of ARR for high values of the AUC",[2]; ARR versus exposure model estimate,0.11
same,Mean ARR,[2]; highest three exposure quintiles (starting at an AUC of 356 ng/ml h),≤ 0.14
same,Increase of bioavailability by dosing with food,[3],about 50%
same,Clinical efficacy on any end points compared with placebo,[4]; 25 mg q.d.,did not show clinical efficacy
same,Annualized relapse rate (ARR),[4]; 48-week double-blind period,0.11
same,Annualized relapse rate (ARR),[4]; 108-week period (48-week double-blind plus 60-week open-label extension),0.12
same,Total cumulative number of T1 Gd+ lesions compared with placebo,[5],reduction
